{"source": "patent US20240294881A1", "about": "“CELL CULTURE SUPPLEMENT FOR PRODUCING STEM CELLS, AND METHOD FOR PRODUCING STEM CELLS” (OPTICELL, INC, priority 2021, published 2024)", "type_in_all_cases": "cell-based", "key": {"[1]": {"system": "healthy human neonatal fibroblasts", "assay": "Anti-NANOG immunostaining of cells dissociated from neonatal fibroblast spheroids", "conditions": "spheroids day 20 dissociated with Accutase, 24 h further culture; nuclei of some cells, majority NANOG-negative", "description": "To detect stem cells induced in fibroblast spheroids, immunostaining with a fluorescent dye-labeled antibody was used, and stem cells in the spheroid-forming cells were detected. An aqueous solution of the polypeptide represented by formula (1) (0.125%) (cell culture supplement) was added to a commercial polystyrene-made 96-well round-bottom culture vessel (Nunclon Delta 96U Bottom, Thermo Fisher Scientific) at 100 μL/well to complete coating treatment with the cell culture supplement in the same manner as in Example 2. Fibroblasts were maintained and cultured in a serum-free medium (Fujifilm Wako Pure Chemical Corporation, DMEM/F12 medium, human serum albumin recombinant 0.5 mg/mL, human transferrin recombinant 10 μg/mL, basic-FGF 5 ng/ml, and insulin 2.5 μg/mL). Fibroblasts floating in the medium were seeded in the culture vessel coated with the cell culture supplement at 2×10^4 cells/well/100 μL and cultured at 37° C. under 5% CO2 conditions. On day 20 after the start of culture, spheroids were aseptically collected from the 96-well round-bottom culture vessel. […] For the fluorescence-labeled antibody, NL493 fluorescent dye-labeled anti-NANOG antibody (fluorescent green, R&D systems) was used, and observation was performed with a fluorescence microscope."}, "[2]": {"system": "healthy human adult mammary gland epithelial cells", "assay": "Real-time PCR of stem cell and three germ layer marker genes in mammary gland epithelial cell spheroids", "description": "The analysis of expression of gene mRNA was performed by real-time PCR.\nSpecifically, on day 20 from the start of culture, spheroids were collected in a 15-mL centrifuge tube and centrifuged, and then washed with phosphate buffered saline (−) and collected. Two-dimensionally cultured cells in the culture vessel that was not coated with the cell culture supplement (control) (day 0) were washed with PBS (−) after removal of the medium, and the cells were detached from the plate with 0.05% trypsin-EGTA and dissociated, followed by collecting the cells in a 15-mL centrifuge tube and washing with PBS (−) again. A NucleoZOL reagent (Macherey-Nagel) was added to the spheroids, and RNA extracted according to the protocol recommended by the reagent manufacturer was determined to be template RNA. For real-time PCR analysis, PCR probes from QuantiFast Probe RT-PCR Kits (QIAGEN; No. 204454) and TagMan Gene Expression Assay Probe (Thermo Fisher Scientific) were used. PCR analysis was performed with a Rotor-Gene Q (QIAGEN) apparatus. The genes targeted for detection were the following three transcription factors: SOX2 (sex-determining region Y-box 2), OCT4 (octamer binding transcription factor 4), and NANOG (homeodomain transcription factor) as the probes for detecting the expression of undifferentiated stem cell marker genes; and β-actin was used as an endogenous control gene (FIG. 16).\nFor probes for detection of genes associated with primordial three germ layers, the following three triploblastic marker genes were used: SOX17 (sex-determining region Y-box 17; endoderm), GATA6 (GATA family of zinc finger transcription factors; mesoderm), and MAP2 (microtubule associated protein 2: ectoderm). For an endogenous control gene, TaqMan Gene Expression Assay Probe of ß-actin was used (FIG. 17).\nIn the gene expression analysis, relative quantification was performed according to the ΔΔCt method (Delta Delta Ct method). The results of analysis according to the ΔΔCt method show the amount of a gene expressed by control cells under the conditions of “no cell culture supplement, flat-bottom 2D growth, day 0” as “1.0” in relative terms, and the increase rate in “the expression level in spheroid proliferation on day 20” was determined by comparison."}, "[3]": {"system": "healthy human neonatal fibroblasts", "assay": "Immunostaining of stem cell marker proteins in neonatal fibroblast spheroids", "description": "To confirm whether stem cells were induced in fibroblast spheroids, the expression of stem cell marker proteins was examined by immunostaining with fluorescent dye-labeled antibodies. An aqueous solution of the polypeptide represented by formula (1) (0.125%) (cell culture supplement) was added to a commercial polystyrene-made 96-well round-bottom culture vessel (Nunclon Delta 96U Bottom, Thermo Fisher Scientific) at 100 μL/well, and the coating treatment with the cell culture supplement was completed in the same manner as in Example 2. Fibroblasts were maintained and cultured in a serum-free medium (Fujifilm Wako Pure Chemical Corporation; DMEM/F12 medium, human serum albumin recombinant 0.5 mg/ml, human transferrin recombinant 10 μg/mL, basic-FGF 5 ng/ml, and insulin 2.5 μg/mL). Fibroblasts floating in the medium were seeded in the culture vessel coated with the cell culture supplement at 4×10^4 cells/well/100 μL and cultured at 37° C. under 5% CO2 conditions. Spheroids were collected from the 96-well round-bottom culture vessel on day 20 from the start of culture, and cell fixation was performed with a 4% paraformaldehyde solution, followed by immunostaining. For fluorescence-labeled antibodies, three antibodies for detection of human stem cell marker proteins (NL557 fluorescent dye-labeled anti-SOX2 antibody (fluorescent orange), NL493 fluorescent dye-labeled anti-NANOG antibody (fluorescent green), and NL637-labeled anti-OCT4 antibody (fluorescent red), R&D Systems)) were used and reacted simultaneously to perform observation with a fluorescence microscope."}, "[4]": {"conditions": "day 20 of 3D spheroid culture, coated 96-well, 2D adhesion control without supplement = 1.0, ΔΔCt"}, "[5]": {"conditions": "day 20 of 3D spheroid culture, 2D control without supplement day 0 = 1.0, ΔΔCt"}, "[6]": {"conditions": "spheroids cultured for 20 days (FIG. 17 legend)"}}}
{"substance": "(Pro-Hyp-Gly)n [cell culture supplement]", "values": [{"measurement": "nuclear NANOG protein in cells dispersed from spheroids", "setting": "[1]", "result": "strong NANOG antibody-positive green fluorescence"}, {"measurement": "GATA6 (mesoderm marker) gene expression", "setting": "[2]; day 20 of 3D spheroid culture", "result": "no gene expression of GATA6 (mesoderm marker) was detected"}, {"measurement": "NANOG gene expression level (increase vs control)", "setting": "[2]; [4]", "result": 28.7, "unit": "fold"}, {"measurement": "OCT4 gene expression level (increase vs control)", "setting": "[2]; [4]", "result": 1.5, "unit": "fold"}, {"measurement": "SOX2 gene expression level (increase vs control)", "setting": "[2]; [4]", "result": 24.0, "unit": "fold"}, {"measurement": "MAP2 gene expression level (increase vs control)", "setting": "[2]; [5]", "result": 2.7, "unit": "fold"}, {"measurement": "SOX17 gene expression level (increase vs control)", "setting": "[2]; [5]", "result": 124.7, "unit": "fold"}, {"measurement": "FOXA2 (endoderm) mRNA expression level", "setting": "[2]; [6]", "result": "decreased"}, {"measurement": "GATA4 (mesoderm) mRNA expression", "setting": "[2]; [6]", "result": "undetectable"}, {"measurement": "NANOG stem cell marker protein, fluorescence (green)", "setting": "[3]; spheroids day 20, NL493-labeled anti-NANOG antibody", "result": "detected"}, {"measurement": "SOX2 stem cell marker protein, fluorescence (orange)", "setting": "[3]; spheroids day 20, NL557-labeled anti-SOX2 antibody", "result": "detected"}, {"measurement": "OCT4 stem cell marker protein, fluorescence (red)", "setting": "[3]; spheroids day 20, NL637-labeled anti-OCT4 antibody", "result": "detected"}]}
